Measurements published in patent US9204653B2, “5-fluoro pyrimidine derivatives” (DOW AGROSCIENCES LLC, priority 2008, dated 2015).
Like-named read-outs stand apart in the source and are kept apart here.

Test system: Mycosphaerella graminicola; Anamorph: Septoria tritici; Bayer Code SEPTTR
Assay: Leaf blotch of wheat, foliar fungicide treatment, one day protectant (1DP) or three day curative (3DC)
Assay type: in vivo, Septoria tritici on wheat plants (variety Yuma)
Details: Zymoseptoria tritici, percent control rating; for pest or weed control at 100 ppm: read-out: SEPTTR 3DC 100 ppm
[1] = 24 h, one day protectant (1DP), 25 ppm (first 1DP column), read-out: SETTTR 1DP 25 ppm
[2] = 24 h, one day protectant (1DP), 25 ppm as printed (second 1DP column), read-out: SETTTR 1DP 25 ppm
[3] = 72 h, three day curative (3DC), 25 ppm, read-out: SEPTTR 3DC 25 ppm

Row | SMILES | pest or weed control at 25 ppm [1] [%] | pest or weed control at 25 ppm [2] [%] | pest or weed control at 25 ppm [3] [%] | pest or weed control at 100 ppm (72 h, three day curative (3DC)) [%]
1 | CC(C)NC(=O)Nc1nc(O)ncc1F [Compound 971] | 26 to 50 | 26 to 50 | 51 to 75 | 76 to 100
2 | CCCCCNC(=O)Nc1nc(O)ncc1F [Compound 972] | 51 to 75 | 76 to 100 | 51 to 75 | 51 to 75
3 | O=C(Nc1nc(O)ncc1F)NC1CCCC1 [Compound 973] | 26 to 50 | 26 to 50 | 76 to 100 | 51 to 75
4 | O=C(/C=C/c1ccccc1)Nc1nc(O)ncc1F [Compound 974] | 51 to 75 | 76 to 100 | 51 to 75 | 26 to 50
5 | CC(C)(C)NC(=O)Nc1nc(O)ncc1F [Compound 975] | 0 to 25 | 0 to 25 | 0 to 25 | 0 to 25
6 | CCOC(=O)CNC(=O)Nc1nc(O)ncc1F [Compound 976] | 0 to 25 | 0 to 25 | 0 to 25 | 0 to 25
7 | Cc1coc(C)c1C(=O)Nc1nc(O)ncc1F [Compound 977] | 0 to 25 | 51 to 75 | 0 to 25 | 76 to 100
8 | Cn1ncc(C(=O)Nc2nc(O)ncc2F)c1Cl [Compound 978] | 0 to 25 | 0 to 25 | 0 to 25 | 0 to 25
9 | O=C(Nc1nc(O)ncc1F)c1ccsc1 [Compound 979] | 0 to 25 | 26 to 50 | 0 to 25 | 51 to 75
10 | CCCNC(=O)Nc1nc(O)ncc1F [Compound 980] | 0 to 25 | 0 to 25 | 0 to 25 | 0 to 25
11 | O=C(NCc1ccco1)Nc1nc(O)ncc1F [Compound 981] | 0 to 25 | 0 to 25 | 0 to 25 | 0 to 25
12 | CCCCCOC(=O)Nc1nc(OCc2ccccc2)ncc1F [Compound 982] | 76 to 100 | 76 to 100 | 76 to 100 | 76 to 100
13 | C=CCOC(=O)Nc1nc(OCc2ccccc2)ncc1F [Compound 983] | 76 to 100 | 76 to 100 | 76 to 100 | 76 to 100
14 | CCCCCOC(=O)Nc1nc(OCc2ccc(F)cc2)ncc1F [Compound 984] | 76 to 100 | 76 to 100 | 76 to 100 | 76 to 100
15 | C=CCOC(=O)Nc1nc(OCc2ccc(F)cc2)ncc1F [Compound 985] | 76 to 100 | 76 to 100 | 76 to 100 | 76 to 100
16 | CCCCCOC(=O)Nc1nc(OCc2ccc(C)cc2)ncc1F [Compound 986] | 76 to 100 | 76 to 100 | 76 to 100 | 76 to 100
17 | C=CCOC(=O)Nc1nc(OCc2ccc(C)cc2)ncc1F [Compound 987] | 76 to 100 | 76 to 100 | 76 to 100 | 76 to 100
18 | CCCCCOC(=O)Nc1nc(OCc2cccc(OC)c2)ncc1F [Compound 988] | 76 to 100 | 76 to 100 | 76 to 100 | 76 to 100
19 | C=CCOC(=O)Nc1nc(OCc2cccc(OC)c2)ncc1F [Compound 989] | 76 to 100 | 76 to 100 | 51 to 75 | 76 to 100
20 | C/C(=N\Oc1nc(OCc2ccccc2)ncc1F)c1cnc(OCC(F)(F)F)nc1 [Compound 990] | 0 to 25 | 0 to 25 | 0 to 25 | 0 to 25
21 | Fc1cnc(OCc2ccccc2)nc1/N=N/c1ccccc1 [Compound 991] | 0 to 25 | 0 to 25 | 0 to 25 | 0 to 25
22 | Cc1ccc(COc2ncc(F)c(/N=N/c3ccccc3)n2)cc1 [Compound 992] | 0 to 25 | 0 to 25 | 0 to 25 | 26 to 50
23 | Fc1cnc(OCc2ccccc2)nc1/N=N/c1ccccn1 [Compound 993] | 0 to 25 | 26 to 50 | 0 to 25 | 51 to 75

Row | SMILES | pest or weed control at 25 ppm [1] [%] | pest or weed control at 25 ppm [2] [%] | pest or weed control at 25 ppm [3] [%] | pest or weed control at 100 ppm (72 h, three day curative (3DC)) [%]
24 | Cc1ccc(COc2ncc(F)c(NS(=O)(=O)c3ccccc3)n2)cc1 [Compound 994] | 0 to 25 | 26 to 50 | 0 to 25 | 0 to 25
25 | CCc1ccccc1NNc1nc(OCc2ccc(C)cc2)ncc1F [Compound 995] | 0 to 25 | 26 to 50 | 0 to 25 | 0 to 25
26 | COc1ccccc1NNc1nc(OCc2ccc(C)cc2)ncc1F [Compound 996] | 26 to 50 | 51 to 75 | 26 to 50 | 51 to 75
27 | CC(C)=NOc1ncc(F)c(N)n1 [Compound 997] | 76 to 100 | 76 to 100 | 76 to 100 | 76 to 100
28 | Nc1nc(ON=C(C2CC2)C2CC2)ncc1F [Compound 998] | 76 to 100 | 76 to 100 | 76 to 100 | 76 to 100
29 | COc1ccc(/C(C)=N/Oc2ncc(F)c(N)n2)cc1 [Compound 999] | 76 to 100 | 76 to 100 | 76 to 100 | 76 to 100
30 | C/C(=N\Oc1ncc(F)c(N)n1)c1ccc(Cl)cc1 [Compound 1000] | 76 to 100 | 76 to 100 | 76 to 100 | 76 to 100
31 | C/C(=N\Oc1ncc(F)c(N)n1)c1cnc(OCC(F)(F)F)nc1 [Compound 1001] | 26 to 50 | 76 to 100 | 26 to 50 | 76 to 100
32 | C/C(=N\Oc1ncc(F)c(N)n1)c1ccc(S(=O)(=O)N(C)C)cc1 [Compound 1002] | 51 to 75 | 76 to 100 | 26 to 50 | 51 to 75
33 | CC(C)S(=O)(=O)Nc1nc(OCc2ccc(F)cc2)ncc1F [Compound 1004] | 0 to 25 | 0 to 25 | 0 to 25 | 26 to 50
34 | O=S(=O)(Nc1nc(OCc2ccc(F)cc2)ncc1F)c1ccccc1 [Compound 1005] | 0 to 25 | 0 to 25 | 0 to 25 | 0 to 25
35 | CCS(=O)(=O)Nc1nc(OCc2ccc(C)cc2)ncc1F [Compound 1006] | 0 to 25 | 0 to 25 | 0 to 25 | 0 to 25
36 | Cc1ccc(COc2ncc(F)c(NS(=O)(=O)C3CC3)n2)cc1 [Compound 1007] | 0 to 25 | 0 to 25 | 0 to 25 | 0 to 25
37 | CS(=O)(=O)Nc1nc(OCc2ccccc2)ncc1F [Compound 1008] | 0 to 25 | 0 to 25 | 0 to 25 | 0 to 25
38 | CC(C)S(=O)(=O)Nc1nc(OCc2ccccc2)ncc1F [Compound 1009] | 0 to 25 | 0 to 25 | 0 to 25 | 0 to 25
39 | O=S(=O)(Nc1nc(OCc2ccccc2)ncc1F)c1ccccc1 [Compound 1010] | 0 to 25 | 0 to 25 | 0 to 25 | 0 to 25
40 | COc1cccc(COc2ncc(F)c(NS(C)(=O)=O)n2)c1 [Compound 1011] | 0 to 25 | 0 to 25 | 0 to 25 | 0 to 25
41 | COc1cccc(COc2ncc(F)c(NS(=O)(=O)C(C)C)n2)c1 [Compound 1012] | 0 to 25 | 0 to 25 | 0 to 25 | 0 to 25
42 | COc1cccc(COc2ncc(F)c(NS(=O)(=O)c3ccccc3)n2)c1 [Compound 1013] | 0 to 25 | 0 to 25 | 0 to 25 | 0 to 25
43 | Fc1ccc(COc2ncc(F)c(/N=N/c3ccccc3Cl)n2)cc1 [Compound 1014] | 0 to 25 | 0 to 25 | 0 to 25 | 76 to 100
44 | COc1nn(C)c(C(F)(F)F)c1S(=O)(=O)Nc1nc(OCc2ccc(C)cc2)ncc1F [Compound 1015] | 0 to 25 | 0 to 25 | 26 to 50 | 76 to 100
45 | COc1ccnc(Cl)c1S(=O)(=O)Nc1nc(OCc2ccc(C)cc2)ncc1F [Compound 1016] | 0 to 25 | 0 to 25 | 51 to 75 | 51 to 75
